Reference: EP0359062B1, “Antibiotic GE 2270” (priority 1988, dated 1990)

Test system: Enterococcus faecalis strain L 149
Test: Bactericidal activity, time-kill curves
Format: cell-based
Conditions: 8 mg/I, in 48 h; inoculum 1.4 x 10^7 CFU/ml
Method: Time-kill curves were run in 10 ml of Todd-Hewitt broth in 100 ml Erlenmeyer flasks, incubated at 37°C without agitation. A logarithmically growing culture of Enterococcus faecalis strain L 149 was inoculated at 1.4 x 10^7 CFU/ml.
The reference antibiotic (teicoplanin, 8 mg/I) killed 99% of the infecting bacteria in 48 h, while antibiotic GE 2270 factor A (0.13 mg/I) killed 99.8% of the bacteria within 2 h and 99.99% within 48 h at this dose or within 24 h at 4 mg/I.

## teicoplanin
  killed bacteria: 99%
